Experimental data as given in patent US11365181B2, “P-phenylenediamine derivative as potassium channel regulator and preparation method and medical application thereof” (Shanghai Zhimeng Biopharma, Inc., priority 2018, dated 2022).
Where two headings read alike, the source gives them in different places.

How the values were obtained:
[1] = biological target: KCNQ2 potassium channel (CHO-KCNQ2 cells) (Homo sapiens (Human), UniProt O43526); assay: Activity test of potassium ion channel opener (FDSS/μCELL detection, FluxOR potassium ion channel assay); format: cell-based; conditions: for EC50: CHO-KCNQ2 cells, FluxOR fluorescence, FDSS/μCELL; for increase of activity versus 6-membered ring comparison compound (ratio of EC50): 03043 vs compound A, 03058 vs compound B
KCNQ2 potassium channel (CHO-KCNQ2 cells), sequence (O43526 whole entry): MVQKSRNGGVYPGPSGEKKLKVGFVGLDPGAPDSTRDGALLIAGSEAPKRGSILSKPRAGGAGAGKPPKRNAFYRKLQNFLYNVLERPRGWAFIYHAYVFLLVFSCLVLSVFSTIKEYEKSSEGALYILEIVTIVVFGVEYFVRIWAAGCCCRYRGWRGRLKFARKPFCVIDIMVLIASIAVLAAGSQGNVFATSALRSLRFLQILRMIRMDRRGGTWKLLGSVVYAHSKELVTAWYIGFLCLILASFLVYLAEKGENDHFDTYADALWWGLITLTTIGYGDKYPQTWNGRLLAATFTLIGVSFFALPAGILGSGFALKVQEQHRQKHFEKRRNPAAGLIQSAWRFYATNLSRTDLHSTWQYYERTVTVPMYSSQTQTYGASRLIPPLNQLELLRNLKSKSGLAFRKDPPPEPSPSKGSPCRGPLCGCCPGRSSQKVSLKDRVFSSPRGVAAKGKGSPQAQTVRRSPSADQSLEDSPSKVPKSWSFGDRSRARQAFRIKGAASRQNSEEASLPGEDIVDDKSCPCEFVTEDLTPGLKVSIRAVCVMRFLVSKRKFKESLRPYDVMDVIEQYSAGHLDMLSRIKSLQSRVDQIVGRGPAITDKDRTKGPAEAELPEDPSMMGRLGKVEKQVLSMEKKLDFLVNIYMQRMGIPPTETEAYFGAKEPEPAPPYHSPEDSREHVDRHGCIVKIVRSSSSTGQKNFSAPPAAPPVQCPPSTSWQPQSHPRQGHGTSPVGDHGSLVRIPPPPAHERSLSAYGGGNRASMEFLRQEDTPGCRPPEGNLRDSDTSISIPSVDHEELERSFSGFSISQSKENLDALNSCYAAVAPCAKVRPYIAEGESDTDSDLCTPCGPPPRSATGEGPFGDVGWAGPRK
Protocol: Activity Test of Potassium Ion Channel Opener (FDSS/ρCELL Detection)
Cell preparation: CHO-KCNQ2 cells were cultured in a 175 cm^2 culture flask, and when the cells was grown to a density of 60-80%, the culture medium was removed, washed with 7 mL PBS (Phosphate Buffered Saline) once, then 3 mL 0.25% Trypsin was added to digest. After the digestion was completed, 7 mL culture medium (90% DMEM/F12+10% FBS+500 μg/mL G418) was added to neutralize, centrifugated for 3 minutes at 800 rpm. The supernatant was aspirated, then 5 mL culture medium was added to resuspend, and then the cells were counted.
Cell plating: The density to 3×10^4/well was adjusted according to the results of cell counting. After standing at room temperature for 30 minutes, the cells were placed in a 37° C. CO2 incubator and incubated overnight for 16-18 hours. The cell density reached about 80%.
Fluorescent dye incubation: The cell culture medium was discarded, 80 μL/well loading buffer was added, and the cells were incubated in dark at room temperature for 60 minutes.
Compound incubation: the loading buffer was discarded, 80 μL/well prepared compound solution was added, incubated at room temperature and in dark for 20 minutes.
Fluorescence data collection: FDSS/μCELL instrument for real-time fluorescence is used for signal recording, wherein excitation wavelength was 480 nm, emission wavelength was 540 nm, and signals were recorded 1 times per second, after baseline was recorded for 10 seconds, the addition of 20 μL/well stimulation buffer was started, and then the signal was continuously record until the end of 180 seconds.
loading buffer: 10 mL/plate, the preparation method was as follows:
Test buffer sample: 100 mL/plate, the preparation method was as follows:
Stimulation buffer: 5 mL/plate, the preparation method was as follows:
The above buffer was from a commercially available kit, the kit name was FluxOR potassium ion channel assay, the manufacturer's brand was Invitrogen, the article number was F10017, the lot number was 913728.
20 mM DMSO compound mother liquor was prepared, 10 μL of 20 mM compound mother liquor was took and added into 20 μL DMSO solution, serially diluted 3 times to 8 intermediate concentrations; then the middle concentration of the compound was took to the test buffer, 200 times dilution to get the final concentration to be tested, 80 μL was took and added to the test plate.
The highest test concentration was 100 μM, followed by […], 33.33, 11.11, 3.70, 1.23, 0.41, 0.137, 0.045 μM, total 8 concentrations. Each concentration 3 replicate holes.
This concentration of DMSO had no effect on the KCNQ2 potassium channel.
Experimental data was analyzed by Excel 2007 and GraphPad Prism 5.0 software, and the ratio of 180 seconds was calculated to calculate the excitement effect. The excitement effect of the compound is calculated by the following formula: […]
Environment: Temperature about 25° C.
Reagent: FluxOR™ Detection Kit (Invitrogen, Cat #[…])
The experimental data in the report might meet the following criteria: Z′ Factor>0.5
2. Determination Results: See Table 1 for Details, where the Smaller EC50 was, the Higher the Activity of the Corresponding Compound was.
References for the above test methods:
(2) Jinfeng Yue et al. Acta Pharmacologica Sinica, 2016, 37:105-110.

[2] = Cerebral blood ratio of compound A in previous studies; format: in vivo; conditions: brain/blood
From the text: It can be seen from the results in Table 4 that after oral administration of compounds 03043 and 03044 to male SD rats, they have a good cerebral blood ratio (1.0-2.4) at each time point.

[3] = Pharmacokinetic study of compound 03058 in male ICR mice; format: in vivo
Protocol: Pharmacokinetic Study of Compound 03058
1) Research purpose: To obtain the pharmacokinetic characteristics of compound 03058 in male ICR mice
6 healthy male ICR mice (body weight range of 18-22 grams) were taken, divide them into 2 groups (3 mice/group, and 3 mice/time point), fasted for more than 12 hours (only oral administration group), and administered intravenously(0.05 mg/kg), orally (1 mg/kg), at time points of 0.083 (intravenous administration only), 0.25, 0.5, 1, 2, 4, 6 (only oral administration). After 8 and 24 h, blood were collected by cardiac puncture. At least 0.3 mL of whole blood was transferred to the EDTA-K2 anticoagulation tube, and within half an hour, the plasma was collected by centrifugation (6000 rpm, 8 minutes, 4° C.), and frozen at −20° C. for use. (Compound configuration: 5% DMAC+10% Solutol HS 15+85% Saline was used to prepare a solution having a concentration of iv 0.01 mg/mL and po 0.1 mg/mL).
(§1) Experimental results: According to the blood drug concentration data obtained, the non-compartmental model of WinNonlin® 7.0 software (Pharsight, USA) was used to calculate the pharmacokinetic parameters after administration.

[4] = Pharmacokinetics of compounds 03043 and 03044 in male SD rats; format: in vivo; conditions: for AUC(0-inf) / AUC(0-t) / Cmax / half-life / Tmax: rat, plasma
From the text: (§2) Study on the Pharmacokinetics of Compounds 03043 and 03044
(§3) 1) Research purpose: To obtain the pharmacokinetic characteristics of compounds 03043 and 03044 in male SD rats and their blood-brain barrier (BBB) penetration
(§4) 15 healthy male SD rats (weight range of 200-250 g) were taken and divided into 3 groups, 3 rats were used for intravenous administration in group 1, 3 rats were used for oral administration in group 2, and 9 rats were used for the determination of cerebral blood ratio after oral administration in group 3 (3 rats/time point). Group 2 and group 3 were fasted for more than 12 hours. Intravenous: 1 mg/kg, oral 5 mg/kg, at time point 0.083 (only group 1), 0.25 (only groups 1 and 2), 0.5 (only groups 1 and 2), 1.2 (only groups 1 and 2). After 4, 8 and 24 h (only group 1 and group 2), blood was collected by jugular vein or cardiac puncture, and at least 0.3 mL of whole blood was collected into an EDTA-K2 anticoagulant tube. Within half an hour, the plasma was collected by centrifugation (6000 revolutions, 8 minutes, 4° C.), frozen at −20° C. for later use. At the same time, brain tissues were collected from group 3 (time points were 1, 4, and 8 h respectively), washed with normal saline, blotted dry with absorbent paper, weighed, and frozen at −20° C. for use. (Compound preparation: 5% DMAC+10% Solutol HS 15+85% Saline was used to prepare a solution having a concentration of iv 0.2 mg/mL and po 0.3 mg/mL).
as §1

[5] = Plasma and brain concentration / cerebral blood ratio (BBB penetration) in male SD rats after single oral administration; format: in vivo; conditions: rat; for concentration at 1 h / Kp at 1 h: 1 h after single oral administration 5 mg/kg; for concentration at 4 h / Kp at 4 h: 4 h after single oral administration 5 mg/kg; for concentration at 8 h / Kp at 8 h: 8 h after single oral administration 5 mg/kg; for Kp / Kp at 1 h / Kp at 4 h / Kp at 8 h: brain/plasma; for Kp: 5 mg/kg, at each time point (1, 4, 8 h), oral administration
From the text: as §2, §3, §4

[6] = mouse, Intravenous 0.05 mg/kg, plasma
[7] = mouse, po, Gavage 1 mg/kg, plasma
[8] = brain, read-out: Brain concentration
[9] = plasma, read-out: Plasma concentration

Compound: Cc1cc(N2CCc3sc(Cl)cc3C2)cc(C)c1NC(=O)CC(C)(C)C [Compound A]
- EC50 [1]: 65 nM
- Kp at 2 h ([2]; at 2 h): 0.56
- Kp at 4 h ([2]; at 4 h): 0.46
- Kp ([2]; overall): ~0.5

Compound: Cc1cc(N2CCOc3cc(F)ccc3C2)cc(C)c1NC(=O)CC(C)(C)C [Compound 03058, N-(4-(8-fluoro-2,3-dihydrobenzo[f][1,4]oxazepin-4(5H)-yl)-2,6-dimethylphenyl)-3,3-dimethylbutanamide]
- increase of activity versus 6-membered ring comparison compound (ratio of EC50) [1]: 12.25 times
- EC50 [1]: 8 nM
- F ([3]; Gavage 1 mg/kg): 30.47%
- AUC(0-inf) [3, 6]: 7.2 ng·h/mL
- AUC(0-t) [3, 6]: 7.2 ng·h/mL
- Cmax [3, 6]: 15.1 ng/mL
- half-life [3, 6]: 0.73 h
- AUC(0-inf) [3, 7]: 43.6 ng·h/mL
- AUC(0-t) [3, 7]: 43.6 ng·h/mL
- Cmax [3, 7]: 17 ng/mL
- Tmax [3, 7]: 0.5 h
- half-life [3, 7]: 1.05 h

Compound: Cc1cc(N2CCCc3cc(Cl)sc3C2)cc(C)c1NC(=O)CC(C)(C)C [Compound 03044, N-(4-(2-chloro-4,5,6,8-tetrahydro-7H-thieno[2,3-c]azepin-7-yl)-2,6-dimethylphenyl)-3,3-dimethylbutanamide]
- F ([4]; Gavage 5 mg/kg): 13.9%
- AUC(0-inf) ([4]; Intravenous 1 mg/kg): 1060 ng·h/mL
- AUC(0-t) ([4]; Intravenous 1 mg/kg): 1040 ng·h/mL
- Cmax ([4]; Intravenous 1 mg/kg): 1740 ng/mL
- half-life ([4]; Intravenous 1 mg/kg): 1.8 h
- AUC(0-inf) ([4]; po, Gavage 5 mg/kg): 889 ng·h/mL
- AUC(0-t) ([4]; po, Gavage 5 mg/kg): 723 ng·h/mL
- Cmax ([4]; po, Gavage 5 mg/kg): 118 ng/mL
- Tmax ([4]; po, Gavage 5 mg/kg): 0.67 h
- half-life ([4]; po, Gavage 5 mg/kg): 7.08 h
- concentration at 1 h [5, 8]: 251 ng/g
- concentration at 4 h [5, 8]: 102 ng/g
- concentration at 8 h [5, 8]: 67.6 ng/g
- Kp [5]: 1 to 2.4
- Kp at 1 h [5]: 2.2
- Kp at 4 h [5]: 2.1
- Kp at 8 h [5]: 1.7
- concentration at 1 h [5, 9]: 112 ng/mL
- concentration at 4 h [5, 9]: 50.2 ng/mL
- concentration at 8 h [5, 9]: 41.3 ng/mL
- EC50 [1]: 57 nM

Compound: Cc1cc(N2CCCc3sc(Cl)cc3C2)cc(C)c1NC(=O)CC(C)(C)C [Compound 03043, N-(4-(2-chloro-4,6,7,8-tetrahydro-5H-thieno[3,2-c]azepin-5-yl)-2,6-dimethylphenyl)-3,3-dimethylbutanamide]
- F ([4]; Gavage 5 mg/kg): 12.79%
- AUC(0-inf) ([4]; Intravenous 1 mg/kg): 964 ng·h/mL
- AUC(0-t) ([4]; Intravenous 1 mg/kg): 957 ng·h/mL
- Cmax ([4]; Intravenous 1 mg/kg): 2040 ng/mL
- half-life ([4]; Intravenous 1 mg/kg): 1.42 h
- AUC(0-inf) ([4]; po, Gavage 5 mg/kg): 1110 ng·h/mL
- AUC(0-t) ([4]; po, Gavage 5 mg/kg): 612 ng·h/mL
- Cmax ([4]; po, Gavage 5 mg/kg): 129 ng/mL
- Tmax ([4]; po, Gavage 5 mg/kg): 0.25 h
- half-life ([4]; po, Gavage 5 mg/kg): 12.3 h
- concentration at 1 h [5, 8]: 67.1 ng/g
- concentration at 4 h [5, 8]: 65.7 ng/g
- concentration at 8 h [5, 8]: 20 ng/g
- Kp [5]: 1 to 2.4
- Kp at 1 h [5]: 2.4
- Kp at 4 h [5]: 1.5
- Kp at 8 h [5]: 1
- concentration at 1 h [5, 9]: 32.2 ng/mL
- concentration at 4 h [5, 9]: 47.9 ng/mL
- concentration at 8 h [5, 9]: 20.8 ng/mL
- increase of activity versus 6-membered ring comparison compound (ratio of EC50) [1]: about 2.83 times
- EC50 [1]: 23 nM
